Tests used:
[1] = tested on: MDCK-WT cells; test: Non-radioactive uptake study of B-10HD-ACV on MDCK-WT cells; type: in vitro ADME, dog; conditions: 200 μM; for Average uptake: DPBS pH 5.4, 90 minutes; for Relative fold uptake: relative to acyclovir
Protocol: Non-radioactive uptake studies were performed for the above prodrugs on MDCK-WT cells after growing them for 7 days. The medium was aspirated and the cells were washed 3 times after an interval of 5 minutes each with DPBS pH 5.4. […] Uptake was carried out for 90 minutes. Uptake was terminated using ice cold DPBS pH 5.4. The cells were then washed 2 times using distilled deionized water and lysed overnight at −80° C. with 500 uL of distilled deionized water in each well. The samples were analyzed using LC-MS/MS.

[2] = tested on: Caco-2 cells monolayer; test: Non-radioactive cellular uptake study, Caco-2; conditions: 90 minutes (FIG. 4)
[3] = tested on: MDCK-MDR1 cell monolayers
Protocol: The medium was changed everyday after reaching confluence.
The experiments were carried out for 90 minutes.

[4] = tested on: MDCK-MDR1 cell monolayer; test: Non-radioactive cellular uptake study, MDCK-MDR1; conditions: pH 5.5, 90 minutes (FIG. 2)

Average uptake [1] [pmoles/mg protein/min]	Relative fold uptake [1]	increase of uptake compared to ACV [4]	Compound	increase of uptake compared to ACV [2] [times]	other results
199.74	43.73	–	Nc1nc2c(ncn2COCCOC(=O)CCCCCCCCCO)c(=O)[nH]1 [10HD-ACV, 2-((2-amino-6-oxo-1,6-dihydropurin-9-yl)methoxy)ethyl 10-hydroxy decanoate]	–	–
4.56	1	–	Nc1nc2c(ncn2COCCO)c(=O)[nH]1 [ACV, 9-(2-hydroxyethoxymethyl)guanine, reference compound]	–	–

More lines, now with the values behind:

Compound	Average uptake [1] [pmoles/mg protein/min]	Relative fold uptake [1]	increase of uptake compared to ACV [4]	increase of uptake compared to ACV [2] [times]	other results
CCCCCCC(CCCCCCCCCCC(=O)OCCOCn1cnc2c(=O)[nH]c(N)nc21)OC(=O)CCCC[C@@H]1SC[C@@H]2NC(=O)N[C@@H]21 (stereo partly drawn) [B-12HS-ACV, Biotin-12-Hydroxystearicacid-ACV]	–	–	–	8.3	–
Nc1nc2c(ncn2COCCOC(=O)CCCC[C@@H]2SC[C@@H]3NC(=O)N[C@@H]32)c(=O)[nH]1 [B-ACV, Biotin-ACV]	–	–	–	–	uptake in the presence of biotin versus in its absence [3]: significantly lesser
CCCCCC[C@H](C/C=C\CCCCCCCC(=O)OCCOCn1cnc2c(=O)[nH]c(N)nc21)OC(=O)CCCC[C@@H]1SC[C@@H]2NC(=O)N[C@@H]21 [B-R-ACV, Biotin-Ricinoleic acid-Acyclovir]	–	–	9.5 times	–	–
CCCCCC[C@@H](O)C/C=C\CCCCCCCC(=O)OCCOCn1cnc2c(=O)[nH]c(N)nc21 [R-ACV, Ricinoleicacid-ACV]	–	–	four	1.4	–
